Results: a melting point compilation (Tetko et al.; mined from patent text by program, amines drawn as free bases though some values may be those of a salt)

| SMILES | melting point [°C] |
| --- | --- |
| CC[C@@H](C1CC1)n1cc(Cl)nc(N2CCc3cc(Br)cc(Br)c32)c1=O | 165 |
| Cc1ccc(CC2(O)CCN(C(C)C(=O)Nc3ccc(O[Si](C)(C)C(C)(C)C)cc3)CC2)cc1 (racemic) | 134 to 138 |
| CCCCCCCCCCCCCCCCCCOc1cc(N)cc(OCCCOc2ccccc2)c1 | 74 to 76 |
| COc1cc(OCc2ccccn2)ccc1/C=C/c1cc(/C=C/c2ccc3[nH]cnc3c2)n[nH]1 | 135 to 142 |
| C=CCOc1cc(C)c(OC(C)=O)c(C)c1C | 40 to 41 |
| Cc1ccc(Nc2nc(Cl)nc(NC3CCCCCC3)n2)cc1F | 149 |
| O=C(CCl)Nc1cccc([N+](=O)[O-])c1 | 110 to 112 |
| COc1ccc(-c2nc(C(F)(F)F)c(Br)[nH]2)cc1Cl | 228 |
| Cn1c(=N)c(F)cn(S(=O)(=O)c2ccccc2)c1=O | 144 |
| CCCCCCCCCCOc1ccc([N+](=O)[O-])cc1OCCCCCCCCCC | 60 to 61 |
| OCCCc1ccc(OCc2ccco2)cc1Oc1ncc(C(F)(F)F)cc1Cl | 68 to 68.6 |
| CCCCCCCCCCCCCCCC(=O)OCCN(C)C | 46 to 48 |
| Cc1ccc(-c2cc(C(F)(F)F)nn2-c2ccc(C#N)cc2)cc1 | 125 to 126 |
| NS(=O)(=O)c1cc(C(=O)O)cc(CCn2cccc2)c1Cl | 224 to 228 |
| CC(C)c1ccc(SCc2c(C(C)C)nc(C(C)C)c(CO)c2-c2ccc(F)cc2)cc1 | 108 to 109 |
| O=C(O)CCCCCc1nc2c(F)c(F)cc(F)c2s1 | 84 to 86 |
| NNC(=O)c1nc(CS(=O)(=O)c2ccc(Cl)cc2)no1 | 177 |
| Cc1cc(C)c(CC(=O)O)cc1C | 123 to 125 |
| Cc1nc(N2CCN(CC3CC3)C2=O)sc1C(=O)NCc1ccncn1 | 188 to 191 |
| O=S(=O)(c1ccc(Oc2ccc(Cl)c(Cl)c2)cc1)C(F)(F)F | 77 to 78 |
| Cc1cc(Br)cc(C(=O)c2[nH]c(=O)[nH]c(=O)c2C(C)C)c1 | 266 to 267 |
| CCCn1c(=O)c2c(N)n[nH]c2n(Cc2ccccc2)c1=O | 214 to 215 |
| N=C(N)NC1CCC(CCN2CCN(c3ccccc3)CC2)CC1 (stereo not drawn) | 140 to 170 |
| CNC(=S)NS(=O)(=O)c1cc2c(cc1C)OCC(NC(=O)c1cc(Cl)ccc1OC)C2 (stereo not drawn) | 207 to 208 |
| Cc1cc(-n2ccnc2)ccc1N | 131 to 134 |
| Nc1ccc(C23CC(C2)C(=O)NC3=O)cc1 | 265 |

| SMILES | melting point [°C] |
| --- | --- |
| Cc1ccc(-n2c(=O)[nH]c(C(F)(F)F)c(F)c2=O)cc1C(=O)OC(C)C | 97 to 100 |
| C/C(=C\c1ccc2c(c1)OCO2)C(=O)O | 205 |
| COC(=O)N1CCC2=NNC(=O)CC2C1 (stereo not drawn) | 163 to 165 |
| COc1ccc(CC(=O)c2cc(OC)c(OC)cc2C)cc1OC | 115 |
| O=c1[nH]c(=O)n(C2CC(O)C(CO)O2)cc1C(Cl)=CI (stereo not drawn) | 109 to 111 |
| CCCCC1(CC)COP(=O)(Cc2ccc(N)cc2)OC1 (stereo not drawn) | 90 to 91 |
| Cn1cc(C=CC(=O)NO)c([N+](=O)[O-])n1 | 172 to 174 |
| CCCCCC=CCC=CCCCCCCCCBr | 35 |
| OC1CCN(CC(O)c2cc(-c3ccccc3)on2)CC1 (stereo not drawn) | 117 to 119 |
| CCc1cn(-c2nc(C)nc(NC)n2)c2ccccc12 | 174 to 175 |
| COc1cccc2c1nc(C(F)F)n2-c1nc(N2CCOCC2)nc(N2CCN(S(=O)(=O)C(F)(F)F)CC2)n1 | 272 to 273 |
| Cn1c(=O)c2c(-c3nc(C4CC4)no3)ncn2c2cccnc21 | 266 to 269 |
| CCOC(=O)C(CCC(=O)c1ccc(F)cc1)(NC(C)=O)C(=O)OCC | 73 |
| COc1c(C(C)(C)C)cc(C=O)c(O)c1Br | 123 to 124 |
| CCC1c2nc[nH]c2CCN1C(=S)NC (stereo not drawn) | 230 |
| CCCOc1ccc(S(=O)(=O)N2CCN(CC)CC2)cc1-c1nc2cc3ncn(Cc4cccc(OC)c4)c3cc2c(=O)[nH]1 | 117 to 118 |
| OCc1ncc2n1CCCC2 | 188 to 199 |
| COc1ccc2c(=O)c(C=O)coc2c1OC(C)=O | 160 to 161 |
| COc1cc(OC2CCN(c3c(O)c(=O)c3=O)CC2)ccc1CC(=O)N1CCN(c2ccccc2C)CC1C(N)=O (stereo not drawn) | 144 to 148 |
| CN(C)S(=O)(=O)NCC(C)(C)N | 77 to 78 |
| NC(=NCC(F)(F)F)Nc1ccn(CCCCO)n1 | 105 to 106 |
| COc1nc(C)nc(OC)c1[N+](=O)[O-] | 114 to 115 |
| N#Cc1ccc(N=Nc2ccc(OCCO)c(C#N)c2)cc1 | 138 |
| COc1ccc2c(c1)[C@@]1(C(=O)O)CC=CC[C@H]1CC2 (relative stereo) | 125 |
| CCOCc1nc2cnc3cccnc3c2n1CC1(O)CCOCC1 | 168 to 169 |

Next, values leading:

| melting point [°C] | SMILES |
| --- | --- |
| 195 to 197 | O=C(Nc1cccc(Cl)c1)c1nc(-c2ccccc2)c2ccccc2c1O |
| 79 to 83 | CC(C)(C)OC(=O)Nc1ccc(-c2ccc(OCc3ccccc3)nc2)cc1NC(=O)CC(=O)c1cccc(-n2ccnc2)c1 |
| 140 to 143 | Cc1ccc(O[C@H]2CCN(C(=O)OCc3ccccc3)C[C@H]2O)cc1C (relative stereo) |
| 134 to 136 | O=C(O)CC1(C(=O)OCc2ccccc2)C(=O)N(Cc2ccc(Cl)c(Cl)c2)C(=O)c2cccn21 (stereo not drawn) |
| 110 | C=C(C)N(C(=C)C)C(=O)C(C)Oc1cc(-c2ccccc2)nc2ccccc12 (stereo not drawn) |
| 225 to 229 | NC(=O)c1c(Cl)c(-c2ccccc2)n2c1CN(C(=O)Cc1cccs1)CC2 |
| 242 | CC(NC(=O)c1cc2ccccc2[nH]1)C(=O)N(c1ccccc1)c1ccccc1 (racemic) |
| 197 to 199 | CC(C)C(=O)Oc1cc(-c2cn3c(n2)sc2ccccc23)cc([N+](=O)[O-])c1OC(=O)C(C)C |
| 167 to 169 | CCOC(=O)C(=O)Nc1cc(=O)c2ccccc2o1 |
| 138 to 139 | CC(C)C(NS(=O)(=O)c1ccc(Cl)s1)c1ncnn1Cc1ccccc1 (stereo not drawn) |
| 127 to 129 | O[C@@H](COc1cccc(-c2noc3ccsc23)c1)CN1CCN(c2ccccc2)CC1 |
| 110 to 111 | c1ccc(CCNc2cc(-n3cccn3)nc(-c3ccco3)n2)nc1 |
| 243 to 247 | O=C(O)Cc1c(C(=O)c2cccc(Cl)c2)[nH]c2ccc(Cl)cc12 |
| 325 to 328 | O=C(O)c1ccc2oc3c(c(=O)c2c1)CCC3=Cc1ccccn1 |
| 143 to 145 | COc1ccc(Cl)cc1C(NC(C)=N)(c1ccccc1)c1ccccc1 |
| 106 to 108 | CCN1c2ncccc2C(=O)N(C)c2ccc(-c3cccn3C(C)=O)nc21 |
| 50 to 55 | COc1cc(OC)nc(OC(C(=O)O)C(C)(Oc2ccccc2)c2ccccc2)n1 (stereo not drawn) |
| 191 | On1c(-c2ccccc2)c[nH]c1=S |
| 126 | O=C(Nc1ccccc1C(F)(F)F)c1ccc([N+](=O)[O-])cc1 |
| 196 to 198 | COC(=O)C(Cc1ccc(OCc2ccccc2)cc1)NC(=O)c1cc2ccc(-c3ccc(Cl)cc3)cc2[nH]1 (stereo not drawn) |
| > 250 | Oc1nc2ccccc2c(O)c1O |
| 129 to 131 | CN(Cc1csc(N)c1C(=O)c1ccc(Cl)cc1)c1ccccc1 |
